# Experimental data: ChEMBL document CHEMBL1221198 (Nat Chem Biol, 2007)
# Legend:
# [1] = test system: HEK293; test: Inhibition of RSK-mediated rpS6 phosphorylation at Ser236 residues in human PMA-stimulated HEK 293 cells at 30 uM after 1 hr by Western blotting; format: cell-based
# [2] = test system: HEK293; test: Inhibition of RSK-mediated rpS6 phosphorylation at Ser235 residues in human PMA-stimulated HEK 293 cells at 30 uM after 1 hr by Western blotting; format: cell-based
# [3] = biological target: T1, Ribosomal protein S6 kinase alpha-3 (Homo sapiens, UniProt P51812); test: Inhibition of His6-tagged RSK2 C-terminal domian expressed in Escherichia coli after 30 mins
# [4] = biological target: T1, Ribosomal protein S6 kinase alpha-3; test: Inhibition of PMA-stimulated RSK2 phosphorylation in HEK293 cells after 1 hr by Western blotting analysis; format: cell-based
# T1 sequence (P51812 whole entry): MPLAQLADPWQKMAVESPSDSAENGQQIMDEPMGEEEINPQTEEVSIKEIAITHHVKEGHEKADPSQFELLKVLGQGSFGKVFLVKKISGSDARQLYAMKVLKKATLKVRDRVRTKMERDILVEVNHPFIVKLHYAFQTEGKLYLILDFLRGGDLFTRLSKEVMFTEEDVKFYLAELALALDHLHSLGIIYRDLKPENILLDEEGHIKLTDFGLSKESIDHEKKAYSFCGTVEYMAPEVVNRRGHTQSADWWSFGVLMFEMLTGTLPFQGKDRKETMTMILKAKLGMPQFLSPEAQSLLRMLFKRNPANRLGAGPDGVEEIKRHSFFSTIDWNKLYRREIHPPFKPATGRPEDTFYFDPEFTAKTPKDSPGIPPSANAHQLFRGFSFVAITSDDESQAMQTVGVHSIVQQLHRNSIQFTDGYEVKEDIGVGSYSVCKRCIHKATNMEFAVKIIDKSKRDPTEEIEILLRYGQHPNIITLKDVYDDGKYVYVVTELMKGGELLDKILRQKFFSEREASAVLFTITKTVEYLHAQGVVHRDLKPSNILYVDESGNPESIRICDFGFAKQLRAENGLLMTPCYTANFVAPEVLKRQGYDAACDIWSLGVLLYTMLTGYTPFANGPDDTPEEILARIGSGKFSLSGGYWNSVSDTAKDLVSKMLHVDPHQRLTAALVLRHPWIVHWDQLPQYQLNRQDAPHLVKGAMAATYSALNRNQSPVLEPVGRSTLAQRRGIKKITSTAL
IC50 [3] [µM],EC50 [4] [µM],Compound,inhibition [1] [%],inhibition [2] [%]
–,–,CO[C@H]1C[C@@H]2CC[C@@H](C)[C@@](O)(O2)C(=O)C(=O)N2CCCC[C@H]2C(=O)O[C@H]([C@H](C)C[C@@H]2CC[C@@H](O)[C@H](OC)C2)CC(=O)[C@H](C)/C=C(\C)[C@@H](O)[C@@H](OC)C(=O)[C@H](C)C[C@H](C)/C=C/C=C/C=C/1C,76,76
1.7,10,CC1=CC(C)=[N+]2C1=Cc1ccc(CCC(=O)NCCCCCC(=O)NCCCCNC(=O)OCCCn3c(C(=O)CF)c(-c4ccc(C)cc4)c4c(N)ncnc43)n1[B-]2(F)F,–,–
